From ChEMBL document CHEMBL1201862, “PubChem BioAssay data set” (2004)
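Five concentrations, 48 hours, 96-well plates. GI50 marks 50% less growth.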 Active and inactive are the calls of the source. Rule as the data show it: active = GI50 up to about 1.1 µM and inactive = higher.

How the values were obtained:
Test in all cases: DTP human tumour cell line panel, 48 h
[1] = system: HOP-92
[2] = system: SNB-78
[3] = system: HCT-116
[4] = system: SK-OV-3
[5] = system: OVCAR-5
[6] = system: RPMI-8226
[7] = system: ACHN
[8] = system: COLO 205
[9] = system: A549
[10] = system: M14
[11] = system: HCC 2998
[12] = system: EKVX
[13] = system: SK-MEL-28
[14] = system: LOX IMVI
[15] = system: NCI-H522
[16] = system: SNB-19
[17] = system: MOLT-4
[18] = system: SR
[19] = system: T47D
[20] = system: BT-549

Row | SMILES | GI50 [1] | GI50 [2] | GI50 [3] | GI50 [4] | GI50 [5] | GI50 [6] | GI50 [7] | GI50 [8] | GI50 [9] | GI50 [10] | GI50 [11] | GI50 [12] | GI50 [13] | GI50 [14] | GI50 [15] | GI50 [16] | GI50 [17] | GI50 [18] | GI50 [19] | GI50 [20]
1 | O=C(CP(=O)(O)O)c1cccs1 | > 100 µM (inactive) | > 100 µM (inactive) | > 100 µM (inactive) | > 100 µM (inactive) | > 100 µM (inactive) | > 100 µM (inactive) | > 100 µM (inactive) | > 100 µM (inactive) | > 100 µM (inactive) | > 100 µM (inactive) | > 100 µM (inactive) | > 100 µM (inactive) | > 100 µM (inactive) | > 100 µM (inactive) | > 100 µM (inactive) | > 100 µM (inactive) | – | – | – | –
2 | O=C1CCCCC1C1(O)C(=O)Nc2cc(F)ccc21 (centres undefined) | > 100 µM (inactive) | > 100 µM (inactive) | > 100 µM (inactive) | > 100 µM (inactive) | > 100 µM (inactive) | > 100 µM (inactive) | > 100 µM (inactive) | > 100 µM (inactive) | > 100 µM (inactive) | > 100 µM (inactive) | > 100 µM (inactive) | > 100 µM (inactive) | > 100 µM (inactive) | > 100 µM (inactive) | > 100 µM (inactive) | > 100 µM (inactive) | > 100 µM (inactive) | – | – | –
3 | O=C1CCSC2=C1SCc1sccc12 | > 100 µM (inactive) | > 100 µM (inactive) | – | > 100 µM (inactive) | > 100 µM (inactive) | 79.3 µM (inactive) | – | > 100 µM (inactive) | > 100 µM (inactive) | > 100 µM (inactive) | > 100 µM (inactive) | 93.5 µM (inactive) | > 100 µM (inactive) | > 100 µM (inactive) | > 100 µM (inactive) | > 100 µM (inactive) | > 100 µM (inactive) | – | – | –
4 | Cc1cccc(C)c1NC(=O)CCCC(=O)C1CCC/C1=N\NC(=O)C(=O)NN (centres undefined) | – | > 100 µM (inactive) | > 100 µM (inactive) | > 100 µM (inactive) | > 100 µM (inactive) | > 100 µM (inactive) | > 100 µM (inactive) | > 100 µM (inactive) | > 100 µM (inactive) | > 100 µM (inactive) | > 100 µM (inactive) | > 100 µM (inactive) | > 100 µM (inactive) | > 100 µM (inactive) | – | > 100 µM (inactive) | > 100 µM (inactive) | – | – | –
5 | C[C@H]1O[C@@H](O[C@H]2[C@@H](O)C[C@H](O[C@H]3[C@@H](O)C[C@H](O[C@H]4CC[C@@]5(C)[C@H](CC[C@@H]6[C@@H]5CC[C@]5(C)[C@@H](C7=CC(=O)OC7)[C@@H](O)C[C@]65O)C4)O[C@@H]3C)O[C@@H]2C)C[C@H](O)[C@@H]1O [GITOXIN] | 0.402 µM (active) | – | 0.127 µM (active) | 0.39 µM (active) | 0.656 µM (active) | 0.197 µM (active) | 0.0948 µM (active) | 0.798 µM (active) | 0.0719 µM (active) | 0.475 µM (active) | 4.19 µM (inactive) | 0.164 µM (active) | 1.15 µM (inactive) | 0.215 µM (active) | 0.0238 µM (active) | 0.714 µM (active) | 0.0277 µM (active) | 0.287 µM (active) | 0.42 µM (active) | 0.116 µM (active)
6 | CN(C)NC(=S)NC12CC3CC(CC(C3)C1)C2 | 91.2 µM (inactive) | > 100 µM (inactive) | > 100 µM (inactive) | > 100 µM (inactive) | > 100 µM (inactive) | – | > 100 µM (inactive) | > 100 µM (inactive) | > 100 µM (inactive) | > 100 µM (inactive) | > 100 µM (inactive) | > 100 µM (inactive) | > 100 µM (inactive) | > 100 µM (inactive) | > 100 µM (inactive) | > 100 µM (inactive) | > 100 µM (inactive) | – | – | –
7 | CCCC(=O)CC(C)C(=O)C(=O)NC12CC3CC(CC(C3)C1)C2 (centres undefined) | 22.3 µM (inactive) | > 100 µM (inactive) | – | – | > 100 µM (inactive) | > 100 µM (inactive) | > 100 µM (inactive) | > 100 µM (inactive) | > 100 µM (inactive) | > 100 µM (inactive) | > 100 µM (inactive) | > 100 µM (inactive) | > 100 µM (inactive) | > 100 µM (inactive) | > 100 µM (inactive) | > 100 µM (inactive) | > 100 µM (inactive) | – | – | –
8 | COc1ccccc1CC1(O)OC(=O)c2ccccc21 (centres undefined) | > 100 µM (inactive) | – | > 100 µM (inactive) | > 100 µM (inactive) | > 100 µM (inactive) | > 100 µM (inactive) | > 100 µM (inactive) | > 100 µM (inactive) | > 100 µM (inactive) | > 100 µM (inactive) | > 100 µM (inactive) | > 100 µM (inactive) | > 100 µM (inactive) | > 100 µM (inactive) | > 100 µM (inactive) | > 100 µM (inactive) | > 100 µM (inactive) | > 100 µM (inactive) | > 100 µM (inactive) | > 100 µM (inactive)
9 | CCOC(=O)CC1C(O)C(=O)N(C)C1c1ccccc1 (centres undefined) | > 100 µM (inactive) | – | > 100 µM (inactive) | > 100 µM (inactive) | > 100 µM (inactive) | > 100 µM (inactive) | > 100 µM (inactive) | > 100 µM (inactive) | > 100 µM (inactive) | > 100 µM (inactive) | > 100 µM (inactive) | > 100 µM (inactive) | > 100 µM (inactive) | > 100 µM (inactive) | > 100 µM (inactive) | > 100 µM (inactive) | > 100 µM (inactive) | > 100 µM (inactive) | > 100 µM (inactive) | > 100 µM (inactive)
10 | C=CCCCCNC(=O)C[C@@H]1C2=C(CC[C@H]1O[Si](C)(C)C(C)(C)C)N1C(=O)CCC/C=C\C1C2 (some centres undefined) | 11 µM (inactive) | – | 13.3 µM (inactive) | 16.6 µM (inactive) | 16 µM (inactive) | 5.71 µM (inactive) | 15.4 µM (inactive) | 13.6 µM (inactive) | 13.1 µM (inactive) | 14.3 µM (inactive) | 10.4 µM (inactive) | 17.3 µM (inactive) | 15 µM (inactive) | 17 µM (inactive) | 11.7 µM (inactive) | 14.4 µM (inactive) | 5.89 µM (inactive) | 5.75 µM (inactive) | 12.7 µM (inactive) | 16.6 µM (inactive)
11 | c1ccc(CN2CCC(=NN3CCCCC3)CC2)cc1 | 16.2 µM (inactive) | – | 64.1 µM (inactive) | > 100 µM (inactive) | > 100 µM (inactive) | 27.7 µM (inactive) | > 100 µM (inactive) | 28.1 µM (inactive) | > 100 µM (inactive) | > 100 µM (inactive) | 51.1 µM (inactive) | > 100 µM (inactive) | > 100 µM (inactive) | 70.6 µM (inactive) | 54.6 µM (inactive) | > 100 µM (inactive) | 39.4 µM (inactive) | 34.4 µM (inactive) | 37.1 µM (inactive) | 43.5 µM (inactive)
